The source of these data is US20240238365A1, “AMYLOID-Beta AGGREGATION INHIBITOR, PHARMACEUTICAL COMPOSITION FOR AMYLOID-Beta AGGREGATION DISEASES, AND USE APPLICATION OF SAME” (O-FORCE CO., LTD., priority 2021, published 2024).

Assay [1] concerns ICR mice to which Aß25-35 had been administered. The assay is described as follows: Y-maze short-term memory test in mice given Aß25-35. It is filed as in vivo. The procedure:
The aggregation inhibiting peptide was further administered to mice to which the Aß25-35 had been administered, and then the effects of the aggregation inhibiting peptide was checked.
The Aß25-35 was dissolved in a saline solution to prepare a 3-mmol/L Aß25-35 solution. The Aß25-35 and the YS-11 were dissolved in a saline solution to prepare a mixed solution containing the Aß25-35 at a concentration of 3 mmol/L and the YS-11 at a concentration of 3 mmol/L. The YS-11 was dissolved in a saline solution to prepare a 10-mg/mL YS-11 solution. A saline solution (Saline) was used as a control.
ICR mice (6-week old) were prepared and divided into an Aß25-35 administration group (n=15), a control (Saline) administration group (n=15), a mixed solution administration group (n=6), and a peptide YS administration group (n=7).
The administration schedule was as follows: ventricular administration was performed on Day 1, and nasal administration was performed on Day 14, Day 17, Day 20, and Day 23. A microsyringe was used for the ventricular administration, and a Pipetman was used for the nasal administration. Specifically, the administration was performed on each administration group as follows. […]
Then, on Day 14 and Day 28, the short-term memory was evaluated using a Y-maze. […]

Assay [2] has as its target T1, Aß25-35 (Homo sapiens, UniProt P05067). Kind of assay: Aggregation inhibition checked by scanning electron microscope. It is filed as biochemical. The conditions noted are these: 0.1 mM peptide, 0.1 mM Aß25-35, 37° C., 4 hours, versus no peptide YS. The procedure: A reaction solution with the following composition was prepared in a 1.5-mL tube (manufactured by Eppendorf). After incubating at 37° C. for 4 hours, the reaction solution was centrifuged (12,000 rpm, 10 minutes), and a precipitate was collected. The collected precipitate was washed as follows: 200 μL of MilliQ water was added to the precipitate and the resultant mixture was centrifuged again (12,000 rpm, 10 minutes). This washing treatment was performed three times. Then, 100 μL of a 1% phosphotungstic acid solution was added to the collected precipitate. After the resultant mixture was left to stand for 5 minutes at room temperature, the precipitate was collected through centrifugation (12,000 rpm, 10 minutes), was washed by adding 200 μL of MilliQ water thereto, and was collected through centrifugation (12,000 rpm, 10 minutes). 100 μL of MilliQ water was added to the precipitate, and a suspension was formed using a Vortex mixer. The suspension was added to a glass slide and dried, followed by observation under a scanning electron microscope. [table]

In assay [3] the target is T1, Aß25-35. The assay is described as follows: IC50 of YS peptide against Aß25-35 aggregation (ThT fluorescence). The conditions noted are these: 37° C., ThT added 2 hours after start of incubation, blank corrected, n=3. The assay is classed as biochemical. The procedure:
Reaction solutions with different compositions, namely those with the following compositions (A, B, C, and D), were prepared and dispensed into wells such that the amount of the reaction solution per well was 200 μL. The concentration (X mmol/L) of the peptide YS (YS-11 or YS-16) in the YS solution to be added to the reaction solutions was set to 0.01, 0.05, 0.1, 0.5, and 1 mmol/L. The reaction solutions were incubated at 37° C., and 10 μL of 2-mmol/L ThT (reagent name “Thioflavine T”, manufactured by FUJIFILM Wako Pure Chemical Corporation) was added to each well 2 hours after the start of the incubation. Then, the fluorescence intensity was measured using the measurement device (n=3). The measurement wavelengths were set such that the excitation wavelength (ex) was 444 nm and the fluorescence wavelength (em) was 480 nm. [table] […] In FIG. 2, the vertical axes indicate the fluorescence intensity (unit: FI), and the horizontal axes indicate the concentration of the peptide YS (unit: μmol/L).

Assay [4] addresses T2, Aß25-35 aggregates (Homo sapiens, UniProt P05067). The assay is described as follows: Peptide YS concentration versus ability to dissociate Aß25-35 aggregates (ThT fluorescence). It is filed as biochemical. The conditions noted are these: 37° C.; for ability to dissociate Aß25-35 aggregates: 5 days after aggregate formation. The procedure:
First, a reaction solution with the following composition was prepared, was dispensed into wells such that the amount of the reaction solution per well was 200 μL, and was incubated at 37° C. for 18 hours to form aggregates of the Aß25-35 in the reaction solution. 100 μL of an X-mmol/L peptide YS solution (YS-11 or YS-16) was further added to the reaction solution, and the resultant mixture was incubated at 37° C. for 5 days. The concentration (X mmol/L) of the peptide YS in the peptide YS solutions was set to […]. After the incubation, 10 μL of 2-mmol/L ThT was added to each well, and the fluorescence intensity was measured using the measurement device (n=3). The measurement wavelengths were set such that the excitation wavelength (ex) was 444 nm and the fluorescence wavelength (em) was 480 nm. As a control, a reaction solution (Aß25-35) to which water had been added instead of the peptide YS was also measured in the same way. [table]

Assay [5] deals with T2, Aß25-35 aggregates. Kind of assay: Dissociation of Aß25-35 aggregates checked by scanning electron microscope. The assay is classed as biochemical. The conditions noted are these: pre-formed aggregates; 100 μL of 0.05-mmol/L YS-11 or 1-mmol/L YS-16 solution added, 37° C., 5 days; versus no peptide. The procedure: A reaction solution with the following composition was prepared in a 1.5-mL tube (manufactured by Eppendorf) and incubated at 37° C. for 18 hours to form aggregates of the Aß25-35. Then, 100 μL of a peptide YS solution at a predetermined concentration was added to the reaction solution, and the resultant mixture was further incubated at 37° C. for 5 days. A 0.05-mmol/L YS-11 solution, a 1-mmol/L YS-16 solution, and a 1-mmol/L YS-6 solution were used as the peptide YS solution, and MilliQ water was used instead of the peptide YS solution as a control. After the incubation, centrifugation (12,000 rpm, 10 minutes) was performed to collect a precipitate. The precipitate was treated in the same manner as in Example 1(3) above, and was then observed under a scanning electron microscope. [table]

Assay [6] addresses T1, Aß25-35. Kind of assay: Inhibition of Aß25-35 aggregation, thioflavin T (ThT) fluorescence. The assay is classed as biochemical. The conditions noted are these: 0.1 mM peptide YS, 0.1 mM Aß25-35, 37° C., incubation 4 hours, n=3. As for the experimental part:
The peptides YS-11, YS-15, and YS-16 were used as the peptides YS of the examples. Each of the peptides was dissolved in MilliQ water to prepare three types of 1-mg/mL YS solutions.
An Aß-derived fragment peptide was used for aggregation of Aß. Aß25-35, which has high aggregability, was selected as the fragment peptide. The Aß25-35 is a peptide (SEQ ID NO: 7: GSNKGAIIGLM) constituted by 11 amino acid residues consisting of the twenty-fifth to thirty-fifth amino acid residues in the full length sequence of human-derived Aß (SEQ ID NO: 6). The Aß25-35 was dissolved in MilliQ water to prepare a 1-mmol/L Aß25-35 solution.
The fluorescent dye thioflavin T (ThT) binds to aggregates and emits strong fluorescence upon binding, and thus the increase or inhibition of aggregation can be determined by measuring the fluorescence intensity. Thus, the inhibition of aggregation of the Aß25-35 by each peptide YS was checked using ThT.
Specifically, a reaction solution with the following composition was prepared and dispensed into wells such that the amount of the reaction solution per well was 200 μL. After the reaction solution was incubated at 37° C. for a predetermined period of time (0 or 4 hours), 10 μL of 2-mmol/L ThT (reagent name “Thioflavine T”, manufactured by FUJIFILM Wako Pure Chemical Corporation) was added to each well, and the fluorescence intensity was measured using a measurement device (product name “Cytation5”, manufactured by BioTek) (n=3). The measurement wavelengths were set such that the excitation wavelength (ex) was 444 nm and the fluorescence wavelength (em) was 480 nm. As a control, a reaction solution to which water had been added instead of the peptide YS was also measured in the same way.

Assay [7] has as its target T2, Aß25-35 aggregates. Kind of assay: Ability to dissociate pre-formed Aß25-35 aggregates (ThT fluorescence). The assay is classed as biochemical. The conditions noted are these: aggregates formed 18 hours at 37° C., then 100 μL of 1-mmol/L peptide added, 5 days. The procedure: First, a reaction solution with the following composition was prepared and incubated at 37° C. for 18 hours to form aggregates of the Aß25-35 in the reaction solution. 100 μL of a 1-mmol/L peptide YS (YS-5 or YS-16) was further added to the reaction solution, and the resultant mixture was incubated at 37° C. for 5 days. After the incubation, the reaction solution was dispensed into wells such that the amount of the reaction solution per well was 200 μL. Furthermore, 10 μL of 2-mmol/L ThT was added to each well, and the fluorescence intensity was measured using the measurement device (n=3). The measurement wavelengths were set such that the excitation wavelength (ex) was 444 nm and the fluorescence wavelength (em) was 480 nm. As a control, a reaction solution to which water had been added instead of the peptide YS was also measured in the same way. [table]

“Also recorded” adds a separate entry of the source. Where no end group is shown, it is not given here.

Regarding RETLVYLTHLD [YS-11, RETLVYLTHLD], the “alternation rate in Y-maze” value in assay [1] (Day 14, ventricular coadministration on Day 1 of 9 nmol Aß25-35 and 9 nmol YS-11 (mixed solution), n=6) is reported as “as high as that of the control group”; in assay [1] (Day 28, Aß25-35 ventricular on Day 1, then YS-11 nasal 74 nmol on Day 14, 17, 20, 23, n=7), “as high as that of the control group”. The “fibrous material / formation of aggregates under scanning electron microscope” value in assay [2] is “decreased very significantly”. Besides, in assay [3], 3600 nM corresponded to half-maximal inhibition (IC50). For the same sequence, in assay [4] (final concentration range of 0.005 to 0.1 mmol/L), the “ability to dissociate Aß25-35 aggregates” value is “excellent dissociating ability”. In assay [5], the “amount of fibrous aggregates under scanning electron microscope” value is recorded as “a further decrease in the amount of fibrous aggregates”. The “fluorescence intensity compared with the control (Aß25-35 without peptide YS)” value in assay [6] is recorded as “significantly lower; also recorded: considerably lower”.
Take “YKNMRETLVYLTHLD (aggregation inhibitor peptide) [YS-15]”: in assay [6], the “fluorescence intensity compared with the control (Aß25-35 without peptide YS)” value was “significantly lower”.
“RETLVYLTHLDYDDTE [YS-16, RETLVYLTHLDYDDTE]”: the “fibrous material / formation of aggregates under scanning electron microscope” value in assay [2] is “substantially no fibrous material was observed”. For the same sequence, the IC50 in assay [3] was 600 nM. The “aggregates dissociated (control Aß25-35 aggregates taken as 100%)” value in assay [4] (final concentration of 0.1 mmol/L, 5 days) was determined as 48%. For the same sequence, the “ability to dissociate Aß25-35 aggregates” value in assay [4] (final concentration range of 0.01 to 0.1 mmol/L) is “excellent dissociating ability in a concentration-dependent manner”. The “amount of fibrous aggregates under scanning electron microscope” value in assay [5] is reported as “a decrease in the amount of fibrous aggregates”. Moreover, in assay [7], the control aggregates dissociated is 50% and the “fluorescence intensity relative to the control (Aß25-35)” value was determined as 50%. In addition, in assay [6], the “fluorescence intensity compared with the control (Aß25-35 without peptide YS)” value was “significantly lower; also recorded: considerably lower”.
